Structures can show the parent of a compound that is named as a salt.
Key:
[1] = biological target: T1, poly(adenosine diphosphate ribose)polymerase (PARP) (Rattus norvegicus, UniProt P27008); assay: Determination of PARP inhibition, in vitro, on isolated enzyme; type: biochemical; conditions: PARP isolated from rat liver; four parallel measurements; read-out: PARP I0.5 (converted)
T1 construct: was isolated from rat liver according to the article of Shah, G. M; from tissue; host or cells: rat liver
T1 sequence (P27008 whole entry): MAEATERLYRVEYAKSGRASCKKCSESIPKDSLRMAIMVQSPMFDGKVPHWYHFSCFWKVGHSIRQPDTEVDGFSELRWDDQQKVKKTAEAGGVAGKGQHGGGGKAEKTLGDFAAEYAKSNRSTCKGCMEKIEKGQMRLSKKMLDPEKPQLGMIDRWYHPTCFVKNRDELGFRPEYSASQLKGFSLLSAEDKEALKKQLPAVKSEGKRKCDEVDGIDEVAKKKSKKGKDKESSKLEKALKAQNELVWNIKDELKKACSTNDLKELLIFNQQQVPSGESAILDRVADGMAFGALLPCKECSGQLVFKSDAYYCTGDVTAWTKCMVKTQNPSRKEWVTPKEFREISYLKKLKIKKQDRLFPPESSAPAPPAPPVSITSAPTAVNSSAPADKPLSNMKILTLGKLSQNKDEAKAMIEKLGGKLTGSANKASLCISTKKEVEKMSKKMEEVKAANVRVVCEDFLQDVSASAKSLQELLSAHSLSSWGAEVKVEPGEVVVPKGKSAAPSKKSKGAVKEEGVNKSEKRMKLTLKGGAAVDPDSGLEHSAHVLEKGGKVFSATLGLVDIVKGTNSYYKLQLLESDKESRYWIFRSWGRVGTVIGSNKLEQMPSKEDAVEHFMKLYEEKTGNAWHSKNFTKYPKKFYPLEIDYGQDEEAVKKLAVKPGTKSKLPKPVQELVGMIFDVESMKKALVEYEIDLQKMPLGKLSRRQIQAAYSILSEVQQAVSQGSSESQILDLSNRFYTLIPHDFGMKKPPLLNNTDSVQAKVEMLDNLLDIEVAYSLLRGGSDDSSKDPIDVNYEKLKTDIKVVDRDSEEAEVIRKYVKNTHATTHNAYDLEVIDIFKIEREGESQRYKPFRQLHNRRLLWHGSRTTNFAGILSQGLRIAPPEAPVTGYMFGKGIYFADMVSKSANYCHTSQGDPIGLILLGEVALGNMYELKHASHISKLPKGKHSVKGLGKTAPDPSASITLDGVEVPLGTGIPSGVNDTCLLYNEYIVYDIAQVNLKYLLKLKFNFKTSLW
Experimental: The poly(adenosine diphosphate ribose)polymerase was isolated from rat liver according to the article of Shah, G. M. [Anal. Biochem., 227, 1–13 (1995)]. The PARP activity was determined in 130 μl of reaction mixture consisting of 100 mM of tris-HCl buffer, pH 8.0, 10 mM of MgCl2, 10% glycerol, 1.5 mM of DTT, 100 μg of (32P) or (3H) NAD+, 10 μg of activated DNA, 10 μg of histone. [Tris-HCl is tris(hydroxymethyl)aminomethane hydrochloride.] After 10 minutes of incubation time, the reaction was stopped with 8% perchloric acid, and the protein was separated through centrifugation (10 minutes, 10.000×g). The precipitate was washed with 8% perchloric acid three times, and the radioactivity bound to the protein was measured with a scintillation counter.

C57BI mice = assay: Experimental model of Parkinson's disease (MPTP); type: in vivo, mouse; conditions: four times 20 mg/kg MPTP intraperitoneally
Excerpt: Parkinson's disease (PD) is a common disabling idiopathic neurodegenerative disorder characterized by tremor, bradykinesia, rigidity and balance difficulties. These motor abnormalities are caused by the depletion of brain dopamine that results from the loss of dopaminerg neurons in the substantia nigra pars compacta. The analysis of the action of 1-methyl-4-phenyl-1,2,3,6-tetrahydropyridine (MPTP) having selective neurotoxicity shed light to the possible patomechanism of the Parkinson's disease. MPTP induces parkinsonian motor signs in both human and animals [Dexter, A. et al., Ann. Neurol., 35, 38–44 (1994)]. MPTP treatment results in a loss of dopaminergic neurons in the substantia nigra pars compacta, as well. Lewy body-like eosinophilic inclusions appear in the damaged neurons and the activity of mitochondrial complex I is also diminished in these cells. These alterations are characteristic for oxidative stress [Shapira, A., Adv. Neurol., 69, 161–165 (1996)]. The biologically active metabolite of MPTP is MPP [1-methyl-4-phenylpyridinium]. MPP inhibits directly complex I in mitochondria leading to increased generation of superoxide anion. […] After centrifugation (14000×g, 10 min, 4° C.), 20 μl of supernatant were injected onto a reverse phase catecholamine column (ESA, Bedford) and dopamine content was evaluated. […]

conscious rabbits = assay: Hyperinsulinaemic euglycaemic clamp studies (insulin sensitivity); type: in vivo, rabbit
Experimental: It was investigated whether treatment with the compounds of the invention effected insulin sensitivity of normal and hypercholesterolaemic conscious rabbits. Adult male white New Zealand rabbits weighing 3–3.5 kg, housed in an animal room (12-hour light/dark periods a day, temperature of 22–25° C., humidity of 50–70%), fed commercial laboratory chow and tap water ad libitum were used throughout. The experimental period commenced after a two-week adaptation period. The rabbits were randomized into two main groups. Half of the animals were continued to feed normal rabbit chow, whereas the second group animals were fed chow enriched with 1.5% cholesterol over a period of eight week. Each main group was divided into four treatment groups: • untreated group, • group treated with a compound of the invention, 10 mg/kg i.v. dose twice a day over 4 days, • group treated with 7-nitroindazole as NOS inhibitor: administration of 5 mg/kg of 7-nitroindazole over 5 min. preceded insulin administration with a 5-min inter-infusion interval, • group treated with both 7-nitroindazole and the compound of the invention as described.
The animals were anaesthetized and polyethylene catheters were inserted into two major branches of the right jugular vein and the left carotid artery. The catheters were exteriorized through the back of the neck and filled with physiological saline containing heparin. […]

male SPRD rats = assay: Heart ischemic failure and reperfusion arrhythmia (LAD occlusion/reperfusion); type: in vivo, rat; conditions: 5 min LAD occlusion, 10 min reperfusion
Experimental: Experiments were carried out in male SPRD rats (acceptable body weight range: 300–350 g). The animals were anesthetized by the administration of pentobarbital [5-ethyl-5-(1-methylbutyl)-2,4,6-(1H,3H,5H)-pyrimidintrione] (60 mg/kg intraperitoneally), and remained breathing spontaneously. The animals were ventilated with a respirator (manufactured by Kutesz, Hungarian Academy of Sciences) by using a trachea cannule inserted after tracheotomy. The standard lead of the ECG II was monitored. The right femoral artery was catheterized and connected to a pressure transducer (BPR-01, Experimetria, Hungary) and a preamplifier. The pulsotachometer (HG-M, Experimetria, Hungary) was started by the pulsating signal of arterial blood pressure. The external jugular vein was cannulated for drug administration. After thoracotomy, a silk (braided, coated 4-0) was placed under the left anterior coronary (LAD) artery. After a few minutes' stabilization period, a 5 min occlusion of LAD artery was applied followed by a 10 min reperfusion period. ECG was recorded in the normal state at the start and in the above periods. From the data of ECG, the span of time of ventricular tachycardia and fibrillation was determined in sec. In addition, the survival ratios in the treated animal groups were recorded.

male NMRI mice = assay: Hepatotoxicity induced by acetaminophene (paracetamol); type: in vivo, mouse; conditions: dose of 50 mg/kg
Experimental: It was examined whether the liver damage induced with paracetamol can be prevented by the novel compounds of the formula I. The symptom of liver damage was characterized by an increase of the GOT and […] enzyme levels induced with paracetamol. The experiments were carried out on male NMRI mice of 30–40 g body weight. The animals were pretreated with the compounds of the formula I, perorally, for 7 days. On day 8, the mice were subjected to starvation for 12 hours, then a 500 mg/kg p.o. dose of paracetamol and a given dose of a compound of the formula I were administered. After 16 hours, the animals were bled to death and the activity of the GOT and GPT enzymes was measured in the serum. The results were analyzed by the non-parametric test of Mann and Whitney. As to the results, the average and the standard deviation are given wherein p<0.05 was considered as significant.

Row | Compound | IC50 [1] [µM] | also measured
1 | O=c1onc(C=Cc2ccccc2)n1CC(O)CN1CCCC1 (centres unmarked) [Example 3, 3-Styryl-4-(3-pyrrolidino-2-hydroxypropyl)-Δ^2-1,2,4-oxadiazolin-5-one-hydrochloride] | 25.4 | 
2 | CN1CC=C(c2ccccc2)CC1 [MPTP, 1-methyl-4-phenyl-1,2,3,6-tetrahydropyridine] |  | decrease in striatal dopamine content (C57BI mice): 80%
3 | COc1ccc(C=Cc2noc(=O)n2CC(O)CN2CCCCC2)cc1OC (centres unmarked) [Example 10, 3-(3,4-Dimethoxystyryl)-4-(3-piperidino-2-hydroxypropyl)-Δ^2-1,2,4-oxadiazolin-5-one hydrochloride] | 71.9 | 
4 | O=c1onc(C=Cc2ccccc2)n1CC(O)CN1CCc2ccccc2C1 (centres unmarked) [Example 8, 3-Styryl-4-[3-(1,2,3,4-tetrahydro-2-isoquinolyl)-2-hydroxypropyl]-Δ^2-1,2,4-oxadiazolin-5-one hydrochloride] | 31.8 | 
5 | O=c1onc(C=Cc2ccccc2)n1CC(O)CN1CCCCCC1 (centres unmarked) [Example 4, 3-Styryl-4-(3-hexamethyleneimino-2-hydroxypropyl)-Δ^2-1,2,4-oxadiazolin-5-one hydrochloride] | 40.8 | 
6 | CN1CCN(CC(O)CNC(C=Cc2ccccc2)=NO)CC1 (centres unmarked) [Example 14, N-[3-(1-Methyl-4-piperazinyl)-2-hydroxypropyl]cinnamic acid amidoxime trihydrogen maleate] | 28.3 | 
7 | CC(C)(C)NCC(O)Cn1c(C=Cc2ccccc2)noc1=O (centres unmarked) [Example 6, 3-Styryl-4-[3-(tert.-butylamino)-2-hydroxypropyl]-Δ^2-1,2,4-oxadiazolin-5-one hydrochloride] | 53.6 | 
8 | ON=C(C=Cc1ccccc1)NCC(O)CN1CCOCC1 (centres unmarked) [Example 13, N-(3-Morpholino-2-hydroxypropyl)cinnamic acid amidoxime dihydrogen maleate] | 65.5 | 
9 | O=[N+]([O-])c1cccc2cn[nH]c12 [7-nitroindazole] |  | effect on the insulin resistance ameliorating effect of the compounds of the invention (conscious rabbits; experimental hypercholesterolaemia): blocked the insulin resistance ameliorating effect; insulin resistance produced by the substance itself (conscious rabbits; normal animals, 5 mg/kg 7-nitroindazole): produced insulin resistance
10 | C(=Cc1ccccc1)C1=NOC(CN2CCCCC2)CN1 (centres unmarked) [Example 16, 3-Styryl-6-(piperidinomethyl)-4H-5,6-dihydro-1,2,4-oxadiazine] | 63.1 | 
11 | O=c1onc(C=Cc2ccccc2)n1CC(O)CN1CCCCC1 (centres unmarked) [Example 2, 3-Styryl-4-(3-piperidino-2-hydroxipropyl)-Δ^2-1,2,4-oxadiazolin-5-one hydrochloride] | 27.3 | longer survival relative to the control group after reperfusion (male SPRD rats): 50%
12 | Cc1cccc(C)c1NCC(O)Cn1c(C=Cc2ccccc2)noc1=O (centres unmarked) [Example 9, 3-Styryl-4-[3-(2,6-dimethylanilino)-2-hydroxypropyl]-Δ^2-1,2,4-oxadiazolin-5-one hydrochloride] | 19.2 | 
13 | ON=C(C=Cc1ccccc1)NCC(O)CN1CCCCC1 (centres unmarked) [Example 12, N-(3-Piperidino-2-hydroxypropyl)cinnamic acid amidoxime] | 59.3 | hepatoprotective effect (male NMRI mice): very favourable hepatoprotective effect
14 | O=c1onc(C=Cc2ccccc2)n1CC(O)CN1CCOCC1 (centres unmarked) [Example 5, 3-Styryl-4-(3-morpholino-2-hydroxypropyl)-Δ^2-1,2,4-oxadiazolin-5-one hydrochloride] | 39.2 | 

From patent US7151175B2, “Propenecarboxylic acid amidoxime derivatives, a process for the preparation thereof, and pharmaceutical compositions containing the same” (N-Gene Research Laboratories Inc., priority 2000, dated 2006)
